Measurements published in patent publication US20150119410A1, “BIOMARKERS OF RESPONSE TO NAE INHIBITORS” (MILLENNIUM PHARMACEUTICALS, INC., priority 2011, published 2015).

Legend:
Assay in all cases: Cell line panel 2 high-content screen
Assay type in all cases: cell-based
SKUT1 = details: Homo sapiens, SK-UT-1; SKUT1 (smooth muscle); 72 hours
Experimental: (§1) To support clinical development and identify potential biomarkers of tumor sensitivity or resistance, two large cancer cell line panels (Panel 1, N=653 (McDermott et al. (2007) PNAS 104:19936-19941); Panel 2, N=240 (O'Day et al. (2010) Fourth AACR International Conference on Molecular Diagnostics in Cancer Therapeutic Development)) were treated with MLN4924 and cell viability data (IC50, EC50, and POC—Percentage of Control) were generated.
(§2) Panel 2 (Ricerca Biosciences, Inc., Bothell, Wash.). MLN4924 was added in half-log dilutions for 10 concentrations and treated for 72 hours. High-content cell screening by fluorescence microscopy included image analysis to generate several types of data. Results included EC50 values (after measurement of cell numbers, the EC50 concentration was calculated from the inflection point of a curve of percent of control (POC) against log of MLN4924 concentration), IC50 values (from the POC-log MLN4924 plot, IC50 is the concentration at 50% maximal possible response), apoptosis (measurement of activation of caspase 3 plotted against log of MLN4924 concentration, determined as the concentration for >5 fold induction), and mitotic activity (determined by measuring the fold increase of phospho-histone 3). A comparison of EC50 to IC50 (FIG. 3) allowed assignment of cell lines to sensitive, insensitive or resistant. Final identification of a cell line as sensitive or resistant was based on the EC50 values. The cutoff for sensitivity is a median EC50 of less than the median value of all POC's recorded in the panel (<0.36), borderline sensitivity was associated with median EC50 of 0.36 to 1.67 and insensitive or resistant cell lines were identified by EC50 greater than the 3rd quartile of all POC's in the panel (>1.67).

MIA-PaCa-2 = details: Homo sapiens; MIA-PaCa-2 (pancreas); 72 hours
Experimental: as §1, §2

SW620 = details: Homo sapiens, SW-620; SW620 (intestine); 72 hours
Experimental: as §1, §2

SW 1116 = details: Homo sapiens; SW 1116 (intestine); 72 hours
Experimental: as §1, §2

RL95-2 = RL95-2 (endometrium)
Experimental: as §1, §2

MDA-MB-231 = details: Homo sapiens; MDA-MB-231 (breast); 72 hours
Experimental: as §1, §2

ACHN = details: Homo sapiens; ACHN (kidney); 72 hours
Experimental: as §1, §2

647-V = details: Homo sapiens; 647-V (urinary_tract); 72 hours
Experimental: as §1, §2

HCT-15 = details: Homo sapiens; HCT-15 (intestine); 72 hours
Experimental: as §1, §2

MDA-MB-468 = details: Homo sapiens; MDA-MB-468 (breast); 72 hours
Experimental: as §1, §2

COLO320 HSR = details: Homo sapiens, COLO-320-HSR; COLO320 HSR (intestine); 72 hours
Experimental: as §1, §2

CAL-27 = details: Homo sapiens; CAL-27 (upper aerodigestive tract); 72 hours
Experimental: as §1, §2

YAPC = details: Homo sapiens; YAPC (pancreas); 72 hours
Experimental: as §1, §2

NClH747 = NClH747 (intestine); 72 hours
Experimental: as §1, §2

BxPC-3 = details: Homo sapiens; BxPC-3 (pancreas); 72 hours
Experimental: as §1, §2

SW1417 = details: Homo sapiens; SW1417 (intestine); 72 hours
Experimental: as §1, §2

THP-1 = THP-1 (haematopoietic, lymphoid_tissue)
Experimental: as §1, §2

SW837 = details: Homo sapiens; SW837 (intestine); 72 hours
Experimental: as §1, §2

SW954 = SW954 (vulva)
Experimental: as §1, §2

T84 = details: Homo sapiens; T84 (intestine); 72 hours
Experimental: as §1, §2

LS1034 = details: Homo sapiens, LS-1034; LS1034 (intestine); 72 hours
Experimental: as §1, §2

FADU = details: Homo sapiens; FADU (upper aerodigestive tract); 72 hours
Experimental: as §1, §2

CAL-62 = details: Homo sapiens; CAL-62 (thyroid); 72 hours
Experimental: as §1, §2

LS-174T = details: Homo sapiens, LS174T; LS-174T (large_intestine); 72 hours
Experimental: as §1, §2

COLO-205 = details: Homo sapiens; COLO-205 (intestine); 72 hours
Experimental: as §1, §2

SK-OV-3 = details: Homo sapiens; SK-OV-3 (ovary); 72 hours
Experimental: as §1, §2

NCl-H520 = NCl-H520 (lung NSCLC); 72 hours
Experimental: as §1, §2

CFPAC-1 = details: Homo sapiens; CFPAC-1 (pancreas); 72 hours
Experimental: as §1, §2

CAPAN-1 = details: Homo sapiens; CAPAN-1 (pancreas); 72 hours
Experimental: as §1, §2

`NS(=O)(=O)OC[C@@H]1C[C@@H](n2ccc3c(N[C@H]4CCc5ccccc54)ncnc32)C[C@@H]1O` [MLN4924, ((1S,2S,4R)-4-{4-[(1S)-2,3-dihydro-1H-inden-1-ylamino]-7H-pyrrolo[2,3-d]pyrimidin-7-yl}-2-hydroxycyclopentyl)methyl sulphamate] gave an EC50 (SKUT1) of 0.0856 µM, an EC50 (MIA-PaCa-2) of 0.239 µM and an EC50 (SW620) of 0.387 µM. For the same compound, the EC50 (SW 1116) was 10 µM, the EC50 (RL95-2; Homo sapiens, 72 hours) was 0.094 µM and the Phenotype (RL95-2; NF2 mutant) was “sensitive (The cutoff for sensitivity is a median EC50 of less than the median value of all POC's recorded in the panel (<0.36))”. It also gave an EC50 (MDA-MB-231) of 0.871 µM, an EC50 (ACHN) of 0.652 µM and an EC50 (647-V) of 0.283 µM. The EC50 (HCT-15) was 0.836 µM, the EC50 (MDA-MB-468) was 0.0267 µM and the EC50 (COLO320 HSR) was 1.78 µM. For the same compound, the EC50 (CAL-27) was 0.139 µM, the EC50 (YAPC) was 0.234 µM and the EC50 (NClH747) was 2.07 µM. For the same compound, the EC50 (BxPC-3) was 0.251 µM, the EC50 (SW1417) was 9.03 µM and the EC50 (THP-1; Homo sapiens, 72 hours) was 0.148 µM. For the same compound, the Phenotype (THP-1; KDM6A mutant) was “sensitive (The cutoff for sensitivity is a median EC50 of less than the median value of all POC's recorded in the panel (<0.36))”, the EC50 (SW837) was 0.694 µM and the EC50 (SW954; Homo sapiens, SW 954, 72 hours) was 0.324 µM. The Phenotype (SW954; SMAD4 mutant) was “sensitive (The cutoff for sensitivity is a median EC50 of less than the median value of all POC's recorded in the panel (<0.36))”, the EC50 (T84) was 0.556 µM and the EC50 (LS1034) was 3.76 µM. For the same compound, the EC50 (FADU) was 0.261 µM, the EC50 (CAL-62) was 0.0837 µM and the EC50 (LS-174T) was 0.137 µM. For the same compound, the EC50 (COLO-205) was 0.0923 µM, the EC50 (SK-OV-3) was 10 µM and the EC50 (NCl-H520) was 0.261 µM. The EC50 (CFPAC-1) was 6.37 µM and the EC50 (CAPAN-1) was 0.365 µM.
